Data taken from patent US20070010671A1, “Novel quinazoline derivatives and methods of treatment related to the use thereof” (priority 2003, published 2007).

Each compound was assayed against MCH receptor (Homo sapiens, UniProt Q99705) (assay: High throughput functional screening FLIPR/FDSS6000: inhibition of MCH-evoked intracellular Ca2+ changes). Details: class by percent of control at 10^-7 M or IC50.
Format: cell-based
Summary of the method: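 Fluo4 fluorescence (Ex 488 nm, Em 530 nm) tracked MCH-evoked [Ca2+]i transients over 290 s by FLIPR or FDSS. Cells carried a constitutively active, non-endogenous receptor version. Compounds were added 3 min before a 50 nM MCH challenge.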

Row | SMILES | class
1 | CN(C)c1nc(N[C@H]2CC[C@@H](CNC(=O)Nc3cccc(F)c3)CC2)nc2ccccc12 [compound 438, N-[(cis-4-{[4-(dimethylamino)quinazolin-2-yl]amino}cyclohexyl)methyl]-N′-(3-fluorophenyl)urea] | 2 (Class 2: The value of percent of control at 10^−7 M was from 40% to 60% or the value of IC50 was from 50 nM to 200 nM.)
2 | CN(C)c1nc(N[C@H]2CC[C@@H](NC(=O)Nc3ccc4c(c3)OCCCO4)CC2)nc2ccccc12 [compound 343, N-(3,4-dihydro-2H-1,5-benzodioxepin-7-yl)-N′-(cis-4-{[4-(dimethylamino)quinazolin-2-yl]amino}cyclohexyl)urea] | 1 (Class 1: The value of percent of control at 10^−7 M was less than 40% or the value of IC50 was less than 50 nM.)
3 | Cc1ccc(C)c(NC(=S)N[C@H]2CC[C@@H](Nc3nc(N(C)C)c4ccccc4n3)CC2)c1 [compound 362, N-(cis-4-{[4-(dimethylamino)quinazolin-2-yl]amino}cyclohexyl)-N′-(2,5-dimethylphenyl)thiourea] | 2 (Class 2: The value of percent of control at 10^−7 M was from 40% to 60% or the value of IC50 was from 50 nM to 200 nM.)
4 | COc1cc(NC(=S)N[C@H]2CC[C@@H](Nc3nc(N(C)C)c4ccccc4n3)CC2)c(OC)cc1Cl [compound 373, N-(4-chloro-2,5-dimethoxyphenyl)-N′-(cis-4-{[4-(dimethylamino)quinazolin-2-yl]amino}cyclohexyl)thiourea] | 1 (Class 1: The value of percent of control at 10^−7 M was less than 40% or the value of IC50 was less than 50 nM.)
5 | CCc1cccc(CC)c1NC(=O)NC[C@H]1CC[C@@H](Nc2nc(N(C)C)c3ccccc3n2)CC1 [compound 484, N-(2,6-diethylphenyl)-N′-[(cis-4-{[4-(dimethylamino)quinazolin-2-yl]amino}cyclohexyl)methyl]urea] | 1 (Class 1: The value of percent of control at 10^−7 M was less than 40% or the value of IC50 was less than 50 nM.)
6 | Cc1ccc(CCNC(=S)N[C@H]2CC[C@@H](Nc3nc(N(C)C)c4ccccc4n3)CC2)cc1 [compound 322] | 3 (Class 3: The value of percent of control at 10^−7 M was more than 60% or the value of IC50 was more than 200 nM.)
7 | Cc1c(Cl)cccc1NC(=S)NC[C@H]1CC[C@@H](Nc2nc(N(C)C)c3ccccc3n2)CC1 [compound 792] | 3 (Class 3: The value of percent of control at 10^−7 M was more than 60% or the value of IC50 was more than 200 nM.)
8 | CN(C)c1nc(N[C@H]2CC[C@@H](CNC(=O)NCCc3ccccc3)CC2)nc2ccccc12 [compound 571] | 3 (Class 3: The value of percent of control at 10^−7 M was more than 60% or the value of IC50 was more than 200 nM.)
9 | CN(C)c1nc(N[C@H]2CC[C@@H](NC(=S)Nc3c(F)cc(F)cc3F)CC2)nc2ccccc12 [compound 247] | 3 (Class 3: The value of percent of control at 10^−7 M was more than 60% or the value of IC50 was more than 200 nM.)
10 | CN(C)c1nc(N[C@H]2CC[C@@H](CNC(=S)Nc3cc(Br)ccc3Br)CC2)nc2ccccc12 [compound 719] | 3 (Class 3: The value of percent of control at 10^−7 M was more than 60% or the value of IC50 was more than 200 nM.)
11 | COC(=O)c1ccccc1NC(=O)NC[C@H]1CC[C@@H](Nc2nc(N(C)C)c3ccccc3n2)CC1 [compound 470, methyl 2-[({[(cis-4-{[4-(dimethylamino)quinazoalin-2-yl]amino}cyclohexyl)methyl]amino}carbonyl)amino]benzoate] | 3 (Class 3: The value of percent of control at 10^−7 M was more than 60% or the value of IC50 was more than 200 nM.)
12 | Cc1noc(C)c1NC(=O)N[C@H]1CC[C@@H](Nc2nc(N(C)C)c3ccccc3n2)CC1 [compound 353, N-(cis-4-{[4-(dimethylamino)quinazolin-2-yl]amino}cyclohexyl)-N′-(3,5-dimethylisoxazol-4-yl)urea] | 2 (Class 2: The value of percent of control at 10^−7 M was from 40% to 60% or the value of IC50 was from 50 nM to 200 nM.)
13 | COc1ccc(NC(=S)NC[C@H]2CC[C@@H](Nc3nc(N(C)C)c4ccccc4n3)CC2)cc1 [compound 607] | 3 (Class 3: The value of percent of control at 10^−7 M was more than 60% or the value of IC50 was more than 200 nM.)
14 | CN(C)c1nc(N[C@H]2CC[C@@H](NC(=S)NCCc3ccc(Cl)cc3)CC2)nc2ccccc12 [compound 242] | 2 (Class 2: The value of percent of control at 10^−7 M was from 40% to 60% or the value of IC50 was from 50 nM to 200 nM.)
15 | CNC(=S)NC[C@H]1CC[C@@H](Nc2nc(N(C)C)c3ccccc3n2)CC1 [compound 610] | 3 (Class 3: The value of percent of control at 10^−7 M was more than 60% or the value of IC50 was more than 200 nM.)
16 | CN(C)c1nc(N[C@H]2CC[C@@H](CNC(=S)Nc3cccc(Cl)c3Cl)CC2)nc2ccccc12 [compound 634] | 3 (Class 3: The value of percent of control at 10^−7 M was more than 60% or the value of IC50 was more than 200 nM.)
17 | CN(C)c1nc(N[C@H]2CC[C@@H](CNC(=S)NC3C[C@@H]4CC[C@H]3C4)CC2)nc2ccccc12 (stereo partly drawn) [compound 663, N-[(1S,4R)-bicyclo[2.2.1]hept-2-yl]-N′-[(cis-4-{[4-(dimethylamino)quinazolin-2-yl]amino}cyclohexyl)methyl]thiourea] | 2 (Class 2: The value of percent of control at 10^−7 M was from 40% to 60% or the value of IC50 was from 50 nM to 200 nM.)
18 | CN(C)c1nc(N[C@H]2CC[C@@H](CNC(=S)Nc3ccc(Cl)cc3)CC2)nc2ccccc12 [compound 588] | 3 (Class 3: The value of percent of control at 10^−7 M was more than 60% or the value of IC50 was more than 200 nM.)

Same assay, conditions: class by percent of control at 10^-7 M or by IC50; read-out: class

Row | IC50 [nM] | SMILES
19 | > 200 | CCCCOc1ccc(NC(=O)N[C@H]2CC[C@@H](Nc3nc(N(C)C)c4ccccc4n3)CC2)cc1 [compound 831]
20 | < 50 | CN(C)c1nc(N[C@H]2CC[C@@H](NC(=O)Nc3c(F)cc(Br)cc3F)CC2)nc2ccccc12 [compound 142, N-(4-bromo-2,6-difluorophenyl)-N′-(cis-4-{[4-(dimethylamino)quinazolin-2-yl]amino}cyclohexyl)urea]
21 | 50 to 200 | CCOc1ccc(NC(=O)N[C@H]2CC[C@@H](Nc3nc(N(C)C)c4ccccc4n3)CC2)cc1 [compound 150, N-(cis-4-{[4-(dimethylamino)quinazolin-2-yl]amino}cyclohexyl)-N′-(4-ethoxyphenyl)urea]
22 | < 50 | CN(C)c1nc(N[C@H]2CC[C@@H](NC(=O)Nc3ccc(Oc4ccccc4)cc3)CC2)nc2ccccc12 [compound 53, N-(cis-4-{[4-(dimethylamino)quinazolin-2-yl]amino}cyclohexyl)-N′-(4-phenoxyphenyl)urea]
23 | > 200 | CN(C)c1nc(N[C@H]2CC[C@@H](NC(=O)Nc3cc(F)cc(C(F)(F)F)c3)CC2)nc2ccccc12 [compound 133]
24 | > 200 | COC(=O)c1ccccc1NC(=O)N[C@H]1CC[C@@H](Nc2nc(N(C)C)c3ccccc3n2)CC1 [compound 70, metyl 2-({[4(cis-4-{[-(dimethylamino)quinazolin-2-yl]amino}cyclohexyl)amino]carbonyl}amino)benzoate]
25 | < 50 | CN(C)c1nc(N[C@H]2CC[C@@H](NC(=O)Nc3ccccc3-c3ccccc3)CC2)nc2ccccc12 [compound 11, N-biphenyl-2-yl-N′-(cis-4-{[4-(dimethylamino)quinazolin-2-yl]amino}cyclohexyl)urea]
26 | 50 to 200 | CN(C)c1nc(N[C@H]2CC[C@@H](NC(=O)Nc3ccc(Cl)cc3Cl)CC2)nc2ccccc12 [compound 22, N-(2,4-dichlorophenyl)-N′-(cis-4-{[4-(dimethylamino)quinazolin-2-yl]amino}cyclohexyl)urea]
27 | > 200 | CN(C)c1nc(N[C@H]2CC[C@@H](NC(=O)OCC3c4ccccc4-c4ccccc43)CC2)nc2ccccc12 [compound 864]
28 | 50 to 200 | COc1cc([N+](=O)[O-])ccc1NC(=O)N[C@H]1CC[C@@H](Nc2nc(N(C)C)c3ccccc3n2)CC1 [compound 104, N-(cis-4-{[4-(dimethylamino)quinazolin-2-yl]amino}cyclohexyl)-N′-(2-methoxy-4-nitrophenyl)urea]

Same assay, conditions: class by percent of control at 10^−7 M or by IC50; read-out: class

Row | IC50 [nM] | SMILES
29 | < 50 | CN(C)c1nc(N[C@H]2CC[C@@H](NC(=O)c3ccc(Oc4ccccc4F)nc3)CC2)nc2ccccc12 [Example 1050, N-(cis-4-{[4-(dimethylamino)quinazolin-2-yl]amino}cyclohexyl)-6-(2-fluorophenoxy)nicotinamide]
30 | 50 to 200 | COc1cccc(NC(=O)NC[C@H]2CC[C@@H](Nc3nc(N(C)C)c4ccccc4n3)CC2)c1 [Example 1017, N-[(cis-4-{[4-(dimethylamino)quinazolin-2-yl]amino}cyclohexyl)methyl]-N′-(3-methoxyphenyl)urea]
31 | > 200 | CN(C)c1nc(N[C@H]2CC[C@@H](NC(=O)Nc3c(Cl)cccc3Cl)CC2)nc2ccccc12 [Example 1012, N-(2,6-dichlorophenyl)-N′-(cis-4-{[4-(dimethylamino)quinazolin-2-yl]amino}cyclohexyl)urea]
32 | < 50 | Cc1ccc(Cl)c(CNC(=O)[C@H]2CC[C@@H](Nc3nc(N(C)C)c4ccccc4n3)CC2)c1F [Example 1150, cis-N-(6-chloro-2-fluoro-3-methylbenzyl)-4-{[4-(dimethylamino)quinazolin-2-yl]amino}cyclohexanecarboxamide]
33 | < 50 | CN(C)c1nc(N[C@H]2CC[C@@H](NC(=O)COc3ccc(Cl)c(Cl)c3)CC2)nc2ccccc12 [Example 1075, 2-(3,4-dichlorophenoxy)-N-(cis-4-{[4-(dimethylamino)quinazolin-2-yl]amino}cyclohexyl)acetamide]
34 | > 200 | CN(C)c1nc(N[C@H]2CC[C@@H](NC(=O)c3ccc(Oc4cccc(Br)c4)nc3)CC2)nc2ccccc12 [Example 1072, 6-(3-bromophenoxy)-N-(cis-4-{[4-(dimethylamino)quinazolin-2-yl]amino}cyclohexyl)nicotinamide]
